Here are results for 5 compounds from patent US4666908A, “5-Substituted pyrazolo[4,3-d]pyrimidine-7-ones and methods of use” (Warner-Lambert Company, priority 1985, dated 1987).

pIC50: −log10 of the molar value. Like-named read-outs stand apart in the source and are kept apart here.

As usually defined, the pIC50 is the IC50 on a negative log10 scale, so that one unit is a factor of ten.

For one experiment, the target named is T1, adenosine A1 receptor (Rattus norvegicus, UniProt P25099).
T1 construct: Whole brain minus cerebellum and brainstem from male Long Evans rats; from tissue; host or cells: whole brain minus cerebellum and brainstem, male Long Evans rats (membranes)
T1 sequence (P25099 1-326): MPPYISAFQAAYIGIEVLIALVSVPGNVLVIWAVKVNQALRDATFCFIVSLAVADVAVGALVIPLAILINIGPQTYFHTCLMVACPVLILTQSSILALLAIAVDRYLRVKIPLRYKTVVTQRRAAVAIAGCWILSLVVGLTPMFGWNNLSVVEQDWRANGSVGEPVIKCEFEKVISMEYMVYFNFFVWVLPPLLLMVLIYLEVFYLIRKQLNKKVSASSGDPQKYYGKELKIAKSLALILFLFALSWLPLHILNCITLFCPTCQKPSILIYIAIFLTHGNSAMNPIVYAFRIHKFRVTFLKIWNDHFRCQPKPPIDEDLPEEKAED
The experiment in a line: Adenosine Receptor Binding - A1 Receptor Affinity (RBA1), [3H]-N6-cyclohexyladenosine displacement. To be noted: [3H]-CHA 1.0 nM, rat brain membranes, 25° C., one hour; read-out: RBA-1, IC50 for adenosine A1 receptor affinity. How it is done: Whole brain minus cerebellum and brainstem from male Long Evans rats (150-200 g) was homogenized in 30 volumes of ice-cold 0.05M Tris-HCl buffer pH 7.7 using a Brinkman Polytron PT-10, (setting number 6 for 20 seconds) and centrifuged for ten minutes at 20,000×g (Sorvall RC-2), 4° C. The supernatant was discarded, and the pellet was resuspended and centrifuged as before. […] The homogenate was again centrifuged, and the final pellet was resuspended in ice-cold 0.05 M Tris-HCl buffer pH 7.7 to a concentration of 20 mg/ml original wet tissue weight and used immediately. […] Incubation volume was 2 ml. […] The filters were rinsed three times with 5 ml of ice cold 0.05 M Tris-HCl buffer pH 7.7. The radio-labeled ligand retained on the filter was measured by liquid scintillation spectrophotometry after shaking the filters for one hour or longer on a mechanical shaker in 10 ml of Beckman Ready-Solv HP scintillation cocktail. […] The Hill coefficient was calculated by linear regression of the line obtained by plotting the log of the bound radioligand vs the log of the [formula] The maximal number of binding sites (Bmax) was calculated from the Scatchard plot.

For another experiment, the system named is Type 3 Phosphodiesterase. Briefly: Phosphodiesterase (PDE) Inhibition, Type 3 Phosphodiesterase. The experiment is classed as biochemical, bovine (coronary arteries). To be noted: Type 3 PDE, at 10^-5 M, substrate 3H-cAMP 1.0 μM. The text has this:
(§1) The method of Thompson, et al (Thompson, W. J., Terasaki, W. L., Epstein, P. M., Strada, S. J., Adv. Cyclic Nucleotide Res., 10:69-92, 1979), with minor modifications, was used to isolate phosphodiesterases from vascular smooth muscle. Bovine coronary arteries (right, anterior descending, and left circumflex arteries) from hearts obtained from a local slaughterhouse were used for these studies. Arteries from two hearts were used for each isolation. Hearts were kept on ice and the arteries were dissected within two hours after the animals were sacrificed. After removing all fat and connective tissue, the arteries were everted, cut into cubes with a single edge razor blade and homogenized with a Brinkman Polytron three times at a rheostat setting of 10.0 in four volumes of the PDE isolation buffer (10 mM Tris-HCl/pH 7.5, 2 mM MgCl2, and 1 mM dithiothreitol). The resulting homogenate was sonicated (30 sec/ml homogenate) and then centrifuged at 30,000 xg for 20 minutes. This and all subsequent procedures were performed at 4° C. The resulting supernatant was filtered through four layers of gauze, and applied to a DEAE-cellulose column (30×1.5 cm), prepared as described by Cheung (Cheung, W. Y., Biochim. Biophys. Acta, 191:303-315, 1969), and equilibrated with freshly prepared 70 mM sodium acetate/5 mM 2-mercaptoethanol (pH 6.5). The column was then washed with 2-3 bed volumes of sodium acetate/2-mercaptoethanol, after which the phosphodiesterases were eluted from the column using a continuous 70-1,000 mM sodium acetate gradient (pH 6.5, containing 5 mM 2-mercaptoethanol; total volume 400 ml). The flow rate was approximately equal to 25 ml/hr. Eight ml fractions were collected and assayed for cyclic AMP- and cyclic GMP-phosphodiesterase activity in the presence and absence of 0.1 units of calmodulin and 10 mM CaCl2. Appropriate fractions were pooled and dialyzed against 70 mM sodium acetate/5 mM 2-mercaptoethanol for 20 hours.
(§2) Following complete separation, the combined phosphodiesterase fractions were concentrated to 14% of the original volume using an Amicon ultrafiltration cell fitted with a UM-10 membrane, according to the method of Wells, et al (Wells, J. N., Baird, C. E., Wu, Y. J., Hardman, J. G., Biochim. Biophys. Acta, 384:430-442, 1975). Following concentration, the protein was then diluted to 65% with ethylene glycol monoethyl ether, and stored at -20° C.
(§3) Phosphodiesterase activity was measured as described previously (Weishaar, P. E., Quade, M., Boyd, D., Schenden, J., Mark, S. S., Kaplan, H. R., Drug Devel. Res., 3:517-534, 1983), in a reaction medium containing 40 mM Tris-HCl (pH 8.0), 5 mM MgCl and 4 mM 2-mercaptoethanol. Unless otherwise noted, the concentration of substrate (^3 H-cyclic AMP or ^3 H-cyclic GMP) was 1.0 μM. All agents examined were dissolved in dimethyl sulfoxide (DMSO). Final concentration of the reaction medium was either 2.5% (cardiac and platelet studies) or 1.25% (smooth muscle studies). This concentration of DMSO produced an approximately 10% inhibition of enzyme activity.

For experiment [1], the system named is pentobarbital-anesthetized dog. The experiment in a line: In Vivo Myocardial Inotropic Activity in Anesthetized Dog (CVAD). More on the design: species or system dog (adult mongrel). To be noted: for change in vivo at 0.31 mg/kg: 0.31 mg/kg IV; for change in vivo at 1 mg/kg: 1.00 mg/kg IV; for change in vivo at 3.1 mg/kg: 3.10 mg/kg IV; for change in vivo at 0.3 mg/kg: 0.30 mg/kg IV. How it is done:
This test procedure is described in the following paragraphs.
This screen consists of determining the effects of increasing intravenous doses of compound on mycardial contractility (dP/dt max of left ventricular blood pressure), heart rate, and aortic blood pressure of the pentobarbital-anesthetized dog.
Adult mongrel dogs of either sex are anesthetized with pentobarbital, 35 mg/kg, IV, and are subsequently maintained under anesthesia with a continuous infusion of pentobarbital, 3.5 mg/kg/hour. The trachea is intubated but the animals are permitted to breathe spontaneously. A cannula is inserted into the femoral vein for administrating test agents. A Millar catheter tip pressure transducer or a fluid filled catheter is inserted into the ascending aorta via the femoral artery for measuring aortic blood pressure. A Millar catheter tip pressure transducer is passed into the left ventricle via the left carotid artery for measuring left ventricular blood pressure. Needle electrodes are placed subcutaneously for recording a lead II electrocardiogram (ECG).
Left ventricular and aortic blood pressures are recorded on a strip chart recorder. Heart rate, using a biotachometer triggered from the R wave of the ECG, and the first derivative of left ventricular blood pressure (dP/dt), obtained with a differentiator amplifier coupled to the corresponding pressure amplifier, are also recorded. A period of at least 30 minutes is utilized to obtain control data prior to administration of test compound.
Ethanol or dimethylacetamide can be used as solvents if adequate dilutions can be made. Appropriate vehicle controls are administered when needed.
Each dose of the test compound is administered in a volume of […] over a period of one minute.

The subject of the next experiment is Type 1 Phosphodiesterase. Briefly: Phosphodiesterase (PDE) Inhibition, Type 1 Phosphodiesterase. To be noted: Type 1 PDE, at 10^-5 M; for % Inhibition of hydrolysis of 3H-cAMP: substrate 3H-cAMP 1.0 μM; for % Inhibition of hydrolysis of 3H-cGMP: substrate 3H-cGMP 1.0 μM. The experiment is classed as biochemical, bovine (coronary arteries).
Text: as §1, §2, §3

[2] abbreviates: Canis lupus familiaris, iv, 0.10 mg/kg IV, read-out: Percent Change Heart Rate.
Setting [3] is: Canis lupus familiaris, iv, 0.10 mg/kg IV, read-out: Percent Change Myocardial Contractility.
Setting [4] is: Canis lupus familiaris, iv, read-out: Percent Change Heart Rate.
The mark [5] stands for this setting: Canis lupus familiaris, iv, read-out: Percent Change Myocardial Contractility.
Where [6] appears, read: Canis lupus familiaris, iv, 0.10 mg/kg IV, read-out: Percent Change Blood Pressure.
[7] abbreviates: Canis lupus familiaris, iv, read-out: Percent Change Blood Pressure.

Consider `Cc1nn(C)c2c(=O)[nH]c(-c3cccnc3)nc12` [Example 4, 1,3-Dimethyl-5-(3-pyridyl)pyrazolo[4,3-d]pyrimidine-7-one], for which the pIC50 on adenosine A1 receptor is 5.51. Moreover, the figures for the “% Inhibition of hydrolysis of 3H-cAMP” value with Type 3 Phosphodiesterase and in the experiment on Type 1 Phosphodiesterase were 3% and 6%, respectively. Besides, the “Percent Change Blood Pressure” value in experiment [1] (0.10 mg/kg IV) was 0/0. The values for the change in vivo at 0.1 mg/kg in experiment [1] (setting [2]) and in experiment [1] (setting [3]) were 0% and 2%, respectively. The change in vivo at 0.31 mg/kg in experiment [1] (setting [4]) is 1%; in experiment [1] (setting [5]), 7%. Besides, the change in vivo at 1 mg/kg in experiment [1] (setting [4]) is 4%; in experiment [1] (setting [5]), 27%. Besides, the change in vivo at 3.1 mg/kg in experiment [1] (setting [4]) was 9%; in experiment [1] (setting [5]), 55%. In addition, in the experiment on Type 1 Phosphodiesterase, the “% Inhibition of hydrolysis of 3H-cGMP” value is 4%.

Turning to `CCn1nc(C)c2nc(-c3ccccc3)[nH]c(=O)c21` [Example 5, 1-Ethyl-3-methyl-5-phenylpyrazolo[4,3-d]pyrimidine-7-one], the pIC50 on adenosine A1 receptor was 6.17. In addition, the “% Inhibition of hydrolysis of 3H-cAMP” value in the experiment with Type 3 Phosphodiesterase was determined as 56%; in the experiment with Type 1 Phosphodiesterase, 29%. Also, the change in vivo at 0.1 mg/kg in experiment [1] (setting [6]) worked out at 2%; in experiment [1] (setting [2]), 7%; in experiment [1] (setting [3]), 10%. Besides, the values for the change in vivo at 1 mg/kg in experiment [1] (setting [7]), in experiment [1] (setting [4]) and in experiment [1] (setting [5]) were 1%, 43% and 77%, respectively. Also, the change in vivo at 3.1 mg/kg in experiment [1] (setting [7]) worked out at 1%; in experiment [1] (setting [4]), 50%; in experiment [1] (setting [5]), 100%. Further, the “% Inhibition of hydrolysis of 3H-cGMP” value in the experiment with Type 1 Phosphodiesterase came to 29%.

For the compound `Cc1nn(C)c2c(=O)[nH]c(-c3ccccc3)nc12` [Example 6, 1,3-Dimethyl-5-phenylpyrazolo[4,3-d]pyrimidine-7-one], on adenosine A1 receptor, the pIC50 is 5.99. Moreover, the entries for the “% Inhibition of hydrolysis of 3H-cAMP” value with Type 3 Phosphodiesterase and with Type 1 Phosphodiesterase were 35% and 6%, respectively. The change in vivo at 0.1 mg/kg in experiment [1] (setting [2]) was -1%; in experiment [1] (setting [3]) it was 4%. Moreover, the change in vivo at 0.31 mg/kg in experiment [1] (setting [4]) is -4%; in experiment [1] (setting [5]), 3%. Moreover, the change in vivo at 1 mg/kg in experiment [1] (setting [4]) was determined as 7%; in experiment [1] (setting [5]), 20%. Further, the change in vivo at 3.1 mg/kg amounted to 37% in experiment [1] (setting [4]) and 45% in experiment [1] (setting [5]). In addition, the “% Inhibition of hydrolysis of 3H-cGMP” value in the experiment with Type 1 Phosphodiesterase is 14%.

Turning to `Cc1ccc(-c2nc3c(C)nn(C)c3c(=O)[nH]2)cc1` [Example 8, 1,3-Dimethyl-5-(4-methylphenyl)pyrazolo[4,3-d]pyrimidine-7-one], the pIC50 at adenosine A1 receptor is 6.38. Besides, the “% Inhibition of hydrolysis of 3H-cAMP” value stood at 15% in the experiment on Type 3 Phosphodiesterase and 14% in the experiment on Type 1 Phosphodiesterase. The change in vivo at 0.1 mg/kg in experiment [1] (setting [6]) was -1%; in experiment [1] (setting [2]), 5%; in experiment [1] (setting [3]), 7%. Also, the change in vivo at 0.3 mg/kg in experiment [1] (setting [7]) worked out at 0%; in experiment [1] (setting [4]), 5%; in experiment [1] (setting [5]), 10%. For the same compound, the change in vivo at 1 mg/kg turned out to be 3% in experiment [1] (setting [7]), 6% in experiment [1] (setting [4]) and 20% in experiment [1] (setting [5]). Further, the results for the change in vivo at 3.1 mg/kg in experiment [1] (setting [7]), in experiment [1] (setting [4]) and in experiment [1] (setting [5]) were 3%, 10% and 22%, respectively. Besides, the change in vivo at 10 mg/kg in experiment [1] (Canis lupus familiaris, iv, 10.00 mg/kg IV, read-out: Percent Change Myocardial Contractility) is 82%. In addition, the “% Inhibition of hydrolysis of 3H-cGMP” value with Type 1 Phosphodiesterase was determined as 15%.

With `Cc1nn(C)c2c(=O)[nH]c(-c3ccc([N+](=O)[O-])cc3)nc12` [Example 9, 1,3-Dimethyl-5-(4-nitrophenyl)pyrazolo[4,3-d]pyrimidine-7-one], the pIC50 on adenosine A1 receptor is 6.06. Besides, in the experiment on Type 3 Phosphodiesterase, the “% Inhibition of hydrolysis of 3H-cAMP” value was 1%. For the same compound, the change in vivo at 0.1 mg/kg in experiment [1] (setting [2]) was 1%. Also, in experiment [1] (setting [3]), the change in vivo at 0.1 mg/kg came out at 4%. In addition, in experiment [1] (setting [4]), the change in vivo at 0.31 mg/kg is 0%, the change in vivo at 1 mg/kg was -3% and the change in vivo at 3.1 mg/kg is 1%. In experiment [1] (setting [5]), the change in vivo at 0.31 mg/kg is 5%, the change in vivo at 1 mg/kg amounted to 4% and the change in vivo at 3.1 mg/kg was 2%. In the experiment with Type 1 Phosphodiesterase, the “% Inhibition of hydrolysis of 3H-cAMP” value is listed as 16% and the “% Inhibition of hydrolysis of 3H-cGMP” value turned out to be 6%.
